Data published in ChEMBL document CHEMBL1795338, “Identification of pentacyclic triterpenes derivatives as potent inhibitors against glycogen phosphorylase based on 3D-QSAR studies” (Eur J Med Chem, 2011).

These compounds were tested against T1, Glycogen phosphorylase, muscle form (Oryctolagus cuniculus, UniProt P00489) (assay: Inhibition of rabbit muscle glycogen phosphorylase A assessed as release of phosphate from glucose-1-phosphate after 25 mins by microplate reader based method).
T1 sequence (P00489 whole entry): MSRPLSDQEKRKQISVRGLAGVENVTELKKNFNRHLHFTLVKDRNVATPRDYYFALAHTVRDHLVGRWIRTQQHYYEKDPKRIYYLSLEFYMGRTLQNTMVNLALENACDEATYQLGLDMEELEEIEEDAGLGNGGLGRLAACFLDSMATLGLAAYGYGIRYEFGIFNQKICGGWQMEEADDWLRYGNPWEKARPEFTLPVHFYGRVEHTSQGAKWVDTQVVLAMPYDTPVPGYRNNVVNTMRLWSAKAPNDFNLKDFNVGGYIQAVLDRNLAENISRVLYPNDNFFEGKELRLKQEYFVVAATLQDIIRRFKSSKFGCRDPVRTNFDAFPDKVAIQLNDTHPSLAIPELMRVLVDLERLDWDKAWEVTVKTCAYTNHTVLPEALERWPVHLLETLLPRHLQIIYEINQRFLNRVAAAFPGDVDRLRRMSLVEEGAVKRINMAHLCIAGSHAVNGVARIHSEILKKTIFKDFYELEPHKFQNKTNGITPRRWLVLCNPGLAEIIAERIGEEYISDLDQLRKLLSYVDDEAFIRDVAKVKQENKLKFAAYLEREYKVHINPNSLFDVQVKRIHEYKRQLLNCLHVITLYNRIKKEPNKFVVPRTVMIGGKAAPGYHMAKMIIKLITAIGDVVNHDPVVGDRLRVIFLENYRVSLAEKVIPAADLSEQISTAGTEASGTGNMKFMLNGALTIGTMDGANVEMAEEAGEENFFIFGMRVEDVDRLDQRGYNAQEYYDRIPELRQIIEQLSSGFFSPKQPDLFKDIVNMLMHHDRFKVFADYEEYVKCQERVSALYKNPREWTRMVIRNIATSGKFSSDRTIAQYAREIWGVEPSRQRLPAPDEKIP

IC50	SMILES
35 µM	CC(=O)O[C@@H]1C[C@]2(C)[C@H]3CC=C4[C@@H]5[C@@H](C)[C@H](C)CC[C@]5(C(=O)O)CC[C@@]4(C)[C@]3(C)CC[C@H]2C(C)(C)[C@H]1OC(C)=O
46.8 µM	CC1(C)CC[C@]2(C(=O)OCc3ccccc3)CC[C@]3(C)C(=CC[C@@H]4[C@@]5(C)C/C(=N\O)C(=O)C(C)(C)[C@@H]5CC[C@]43C)[C@@H]2C1
69.5 µM	C[C@H]1[C@H](C)CC[C@]2(C(=O)OCc3ccccc3)CC[C@]3(C)C(=CC[C@@H]4[C@@]5(C)C[C@@H]6O[C@@H]6C(C)(C)[C@@H]5CC[C@]43C)[C@H]12
6.59 µM	CC1(C)CC[C@]2(C(=O)OCc3ccccc3)CC[C@]3(C)C(=CC[C@@H]4[C@@]5(C)C[C@H](O)[C@@H](O)C(C)(C)[C@@H]5CC[C@]43C)[C@@H]2C1
13.1 µM	COc1ccc(-n2ncc3c2C(C)(C)[C@@H]2CC[C@]4(C)[C@H](CC=C5[C@@H]6CC(C)(C)CC[C@]6(C(=O)OCc6ccccc6)CC[C@]54C)[C@@]2(C)C3)cc1
14.1 µM	CC1(C)CC[C@]2(C(=O)OCCCCCCN)CC[C@]3(C)C(=CC[C@@H]4[C@@]5(C)CC[C@H](O)C(C)(C)[C@@H]5CC[C@]43C)[C@@H]2C1
2.23 µM	CC(=O)O[C@H]1CC[C@]2(C)[C@H]3CC=C4[C@@H]5CC(C)(C)CC[C@]5(C(=O)OC[C@H](O)[C@H]5OC(=O)C(O)=C5O)CC[C@@]4(C)[C@]3(C)CC[C@H]2C1(C)C
53.8 µM	CC(=O)n1cc2c(n1)C(C)(C)[C@@H]1CC[C@]3(C)[C@H](CC=C4[C@@H]5CC(C)(C)CC[C@]5(C(=O)O)CC[C@]43C)[C@@]1(C)C2
12.7 µM	CC1(C)CC[C@]2(C(=O)O)CC[C@]3(C)C(=CC[C@@H]4[C@@]5(C)CC6C=NOC6C(C)(C)[C@@H]5CC[C@]43C)[C@@H]2C1 (some centres not stated)
5.39 µM	CC1(C)CC[C@]2(C(=O)OCc3ccccc3)CC[C@]3(C)C(=CC[C@@H]4[C@@]5(C)CC[C@H](OC(=O)[n+]6ccccc6)C(C)(C)[C@@H]5CC[C@]43C)[C@@H]2C1
18.6 µM	CC(=O)O[C@@H]1O[C@H](OC(=O)[C@]23CCC(C)(C)C[C@H]2C2=CC[C@@H]4[C@@]5(C)C[C@@H](O)[C@H](O)C(C)(C)[C@@H]5CC[C@@]4(C)[C@]2(C)CC3)[C@@H](OC(C)=O)[C@H](OC(C)=O)[C@H]1OC(C)=O
8 µM	CC1(C)CC[C@]2(C(=O)OCc3ccccc3)CC[C@]3(C)C(=CC[C@@H]4[C@@]5(C)C/C(=N\OCc6ccc(Cl)cc6Cl)C(=O)C(C)(C)[C@@H]5CC[C@]43C)[C@@H]2C1
3.07 µM	CC1(C)CC[C@]2(C(=O)O)CC[C@]3(C)[C@H]([C@@H](O)C[C@@H]4[C@@]5(C)CC[C@H](O)C(C)(C)[C@@H]5CC[C@]43C)[C@@H]2C1
20.7 µM	CC(=O)OCc1cn(CCCCCCn2cc(COC(=O)[C@]34CCC(C)(C)C[C@H]3C3=CC[C@@H]5[C@@]6(C)CC[C@H](O)C(C)(C)[C@@H]6CC[C@@]5(C)[C@]3(C)CC4)nn2)nn1
103 µM	CC1(C)CC[C@]2(C(=O)O)CC[C@]3(C)C(=CC[C@@H]4[C@@]5(C)C[C@@H](O)[C@H](O)[C@@](C)(CO)[C@@H]5CC[C@]43C)[C@@H]2C1 [ARJUNOLIC ACID]
73.7 µM	CCC(=O)O[C@@H]1C[C@]2(C)[C@H]3CC=C4[C@@H]5[C@@H](C)[C@H](C)CC[C@]5(C(=O)O)CC[C@@]4(C)[C@]3(C)CC[C@H]2C(C)(C)[C@H]1OC(=O)CC
7.31 µM	C[C@H]1[C@H](C)CC[C@]2(C(=O)OCc3ccccc3)CC[C@]3(C)C(=CC[C@@H]4[C@@]5(C)C=C(O)C(=O)C(C)(C)[C@@H]5CC[C@]43C)[C@H]12
6.54 µM	CC1(C)CC[C@]2(C(=O)OCc3ccccc3)CC[C@]3(C)[C@H]([C@@H](O)C[C@@H]4[C@@]5(C)CC[C@H](O)C(C)(C)[C@@H]5CC[C@]43C)[C@@H]2C1
64.6 µM	CCn1cc2c(n1)C(C)(C)[C@@H]1CC[C@]3(C)[C@H](CC=C4[C@@H]5CC(C)(C)CC[C@]5(C(=O)OCc5ccccc5)CC[C@]43C)[C@@]1(C)C2

IC50	SMILES
126 µM	CC1(C)CC[C@]2(C(=O)OCc3ccccc3)CC[C@]3(C)C(=CC[C@@H]4[C@@]5(C)Cc6cn(Cc7ccccc7)nc6C(C)(C)[C@@H]5CC[C@]43C)[C@@H]2C1
4.1 µM	CCOC(=O)COC(=O)[C@]12CC[C@@H](C)[C@H](C)[C@H]1C1=CC[C@@H]3[C@@]4(C)CC[C@H](O)C(C)(C)[C@@H]4CC[C@@]3(C)[C@]1(C)CC2
21.7 µM	CC1(C)CC[C@]2(C(=O)OCc3ccccc3)CC[C@]3(C)C(=CC[C@@H]4[C@@]5(C)C[C@H](O)[C@H](O)C(C)(C)[C@@H]5CC[C@]43C)[C@@H]2C1 [BENZYL AUGUSTATE]
37.2 µM	CCC(=O)n1cc2c(n1)C(C)(C)[C@@H]1CC[C@]3(C)[C@H](CC=C4[C@@H]5CC(C)(C)CC[C@]5(C(=O)O)CC[C@]43C)[C@@]1(C)C2
8.1 µM	CC1(C)CC[C@]2(C(=O)OCc3ccccc3)CC[C@]3(C)C(=CC[C@@H]4[C@@]5(C)Cc6cn[nH]c6C(C)(C)[C@@H]5CC[C@]43C)[C@@H]2C1
3.3 µM	CC1(C)CC[C@]2(C(=O)O)CC[C@]3(C)C(=CC[C@@H]4[C@@]5(C)CC[C@H](OC(=O)/C=C\c6ccc(Cl)cc6)C(C)(C)[C@@H]5CC[C@]43C)[C@@H]2C1
20.1 µM	CCN(CC)CC(=O)O[C@H]1CC[C@]2(C)[C@H]3CC=C4[C@@H]5CC(C)(C)CC[C@]5(C(=O)OCc5ccccc5)CC[C@@]4(C)[C@]3(C)CC[C@H]2C1(C)C
225 µM	CC1(C)CC[C@]2(C(=O)O)CC[C@]3(C)C(=CC[C@@H]4[C@@]5(C)CC/C(=N\O)C(C)(C)[C@@H]5CC[C@]43C)[C@@H]2C1
23.1 µM	CC1(C)CC[C@]2(C(=O)OC3CC3)CC[C@]3(C)C(=CC[C@@H]4[C@@]5(C)C[C@H](O)CC(C)(C)[C@@H]5CC[C@]43C)[C@@H]2C1
20.8 µM	CC1(C)CC[C@]2(C(=O)OCc3ccccc3)CC[C@]3(C)C(=CC[C@@H]4[C@@]5(C)CC/C(=N\O)C(C)(C)[C@@H]5CC[C@]43C)[C@@H]2C1
22.3 µM	C[C@H]1[C@H](C)CC[C@]2(C(=O)OCc3ccccc3)CC[C@]3(C)C(=CC[C@@H]4[C@@]5(C)C[C@H](O)CC(C)(C)[C@@H]5CC[C@]43C)[C@H]12
10 µM	CCCOC(=O)[C@@]1(C)[C@@H]2CC[C@]3(C)[C@H](CC=C4[C@@H]5[C@@H](C)[C@H](C)CC[C@]5(C(=O)O)CC[C@]43C)[C@@]2(C)C[C@@H](OC(=O)CCC)[C@@H]1OC(=O)CCC
33 µM	COC(=O)[C@@]1(C)[C@@H]2CC[C@]3(C)[C@H](CC=C4[C@@H]5[C@@H](C)[C@H](C)CC[C@]5(C(=O)O)CC[C@]43C)[C@@]2(C)C[C@@H](OC(C)=O)[C@@H]1OC(C)=O
12.6 µM	CCCCNCCCCCCOC(=O)[C@]12CCC(C)(C)C[C@H]1C1=CC[C@@H]3[C@@]4(C)CC[C@H](O)C(C)(C)[C@@H]4CC[C@@]3(C)[C@]1(C)CC2
16.1 µM	CC1(C)CC[C@]2(C(=O)OCc3ccccc3)CC[C@]3(C)C(=CC[C@@H]4[C@@]5(C)CC[C@H](OC(=O)c6ccc([N+](=O)[O-])cc6)C(C)(C)[C@@H]5CC[C@]43C)[C@@H]2C1
5.1 µM	C[C@H]1[C@H](C)CC[C@]2(C(=O)O)CC[C@]3(C)C(=CC[C@@H]4[C@@]5(C)C[C@@H](OC(=O)c6ccccc6)[C@H](O)C(C)(C)[C@@H]5CC[C@]43C)[C@H]12
52.9 µM	CC1(C)CC[C@]2(C(=O)OCc3ccccc3)CC[C@]3(C)C(=CC[C@@H]4[C@@]5(C)CC(=O)[C@H](O)C(C)(C)[C@@H]5CC[C@]43C)[C@@H]2C1
12.7 µM	CC1(C)CC[C@]2(C(=O)OCc3ccccc3)CC[C@]3(C)C(=CC[C@@H]4[C@@]5(C)CC[C@H](OC(=O)CN=[N+]=[N-])C(C)(C)[C@@H]5CC[C@]43C)[C@@H]2C1
